Experimental findings from the NIST ThermoML archive (doi:10.1016/j.jct.2015.06.002) are described below.

± gives the expanded uncertainty stated by the source.

For series [1] the following is noted: 298.15 K; Liquid; Gas chromatography.
Series [2] is described as follows: Boiling temperature at pressure P. The conditions noted are these: Liquid, Gas chromatography.

The term vapor or sublimation pressure denotes the equilibrium pressure above the liquid or solid. In the case of `C/C=C/C=C/CCCCCCCO` [(E,E)-8,10-dodecadien-1-ol], in series [1], the “vapor or sublimation pressure” value was found to be 8.3e-05 ± 2.5e-05 kPa. In addition, the results for the “Boiling temperature at pressure P” value in series [2] (0.267 kPa) and in series [2] (101.33 kPa) were 116 ± 20 °C and 276.0 ± 20 °C, respectively.
